{"source": "patent US5892064A", "about": "“Chemiluminescent dialkyl-substituted 1,2-dioxetanes, methods of synthesis and use” (Lumigen, Inc., priority 1997, dated 1999)", "key": {"[1]": {"conditions": "literature, cited from earlier work"}, "[2]": {"assay": "Fluoride-triggered (TBAF) chemiluminescent decomposition of dioxetanes in DMSO", "format": "physicochemical", "conditions": "for rates of fluoride-triggered decomposition compared / t1/2 trig.: 10 μL of 10^-6 M dioxetane with 50 μL of 1M TBAF in DMSO; for Rate acceleration: fluoride-triggered versus thermal decomposition; for t1/2: [F-] 1M, DMSO", "description": "(§1) Chemiluminescence intensities and rate measurements were performed using either a Turner Designs (Sunnyvale, Calif.) model TD-20e luminometer or a luminometer built in house (Black Box) which uses a photon counting photomultiplier. Temperature control of samples analyzed in the luminometers was achieved by means of a circulating bath connected to the instrument. Quantitative measurement of light intensities on the Turner luminometer was extended beyond the 10^4 linear range of the detector by a neutral density filter. Data collection was controlled by an Apple MacIntosh SE/30 computer using the LUMISOFT data reduction program (Lumigen, Inc., Southfield, Mich.).\nStock solutions of dioxetanes 2c, 2e, 2g and for comparison, 4-(3-t-butyldimethylsilyloxyphenyl)-4-methoxyspiro [1,2-dioxetane-3,2'-tricyclo[3.3.1.1^3,7 ]decane] (2j), (preparation described in U.S. Pat. No. 4,962,192) were made to a concentration of 10^-6 M in DMSO. Serial dilutions in DMSO were made as required. Ten μL aliquots were triggered in 7×50 mm polypropylene tubes in a Turner Designs TD-20e luminometer by injection of 50 μL of a solution of tetra-n-butylammonium fluoride (TBAF) in DMSO (1M-10^-4 M) in the appropriate solvent, typically DMSO. Light intensity was attenuated when needed by a neutral density filter. All experiments were conducted at ambient temperature. Peak light intensity and decay rate diminished as the fluoride concentration was decreased. At the lowest concentration of fluoride, decay kinetics were not cleanly first order.\nThe half lives for decay were essentially independent of dioxetane concentration.\nThe rates of fluoride-triggered decomposition of dioxetanes 2c, h, i and j were compared in DMSO under identical conditions, i.e. 10 μL aliquot of a 10^-6 M solution of dioxetane with 50 μL of 1M TBAF in DMSO. […]"}, "[3]": {"assay": "Thermal stability of dioxetanes: first order decay of chemiluminescence of dilute solutions in xylene at several temperatures", "format": "physicochemical", "conditions": "for Ea: activation energy for thermal decomposition; for Ea / log A: dilute solutions in xylene; for t1/2: thermal decomposition (Table 4; temperature not given); for t1/2 25° C. / log A: thermal decomposition", "description": "as §1\nActivation energies for thermal decomposition of dioxetanes 2c, h and i were determined by measuring the first order rate constant k for decay of chemiluminescence of dilute solutions in xylene at several temperatures."}, "[4]": {"assay": "Thermal and hydrolytic stability of dioxetane in aqueous buffer solution", "format": "physicochemical", "conditions": "0.33 mM, 1 mg/mL Enhancer A, 0.2M buffer pH 9.6, 37° C. versus room temperature, 5 days", "description": "The thermal and hydrolytic stability of a 0.33 mM solution of dioxetane 2f containing 1 mg/mL of Enhancer A in 0.2M 2-amino-2-methyl-1-propanol buffer, pH 9.6 and 0.88 mM Mg^+2 was determined at 37° C. Solutions of the dioxetane were maintained at room temperature and 37° C. for 5 days. To each of 12 wells in a 96-well microplate was added 100 μL of each solution. The plate was incubated at 37° C. and chemiluminescence emission initiated by addition of 10 μL of solutions containing 1.1×10^-15 mol of AP. Light intensities were integrated for 2.5 hours. Stability of the dioxetane was assessed by comparing the average light yield of the sample incubated at 37° C. to the solution held at room temperature. A decrease in the amount of light emitted indicates decomposition of the dioxetane during the incubation period."}}, "data": [{"smiles": "C1C2CC3CC1CC(C2)C31OOC12C1CC3CC(C1)CC2C3", "note": "(centres unmarked)", "values": [{"measurement": "half life (t1/2) at 25° C.", "setting": "[1]; 25° C.", "result": "several years"}, {"measurement": "activation energy for decomposition", "setting": "[1]", "result": 37, "unit": "kcal/mol"}]}, {"smiles": "COC1(c2cccc(OC(C)=O)c2)OOC1(C(C)C)C(C)C", "note": "(centres unmarked) [Dioxetane 2c]", "values": [{"measurement": "rates of fluoride-triggered decomposition compared", "setting": "[2]", "result": "essentially the same rate"}, {"measurement": "t1/2 trig.", "setting": "[2]", "result": 7, "unit": "s"}, {"measurement": "Rate acceleration", "setting": "[2]", "result": "5.5 × 10^6"}, {"measurement": "Ea", "setting": "[3]", "result": 28.1, "unit": "kcal/mol"}, {"measurement": "t1/2", "setting": "[3]", "result": 1.2, "unit": "yr"}, {"measurement": "t1/2 25° C.", "setting": "[3]", "result": 1.2, "unit": "yr"}, {"measurement": "log A", "setting": "[3]", "result": 12.85}]}, {"smiles": "COC1(c2cccc(O[Si](C)(C)C(C)(C)C)c2)OOC1(C1CCCCC1)C1CCCCC1", "note": "(centres unmarked) [Dioxetane 2h]", "values": [{"measurement": "rates of fluoride-triggered decomposition compared", "setting": "[2]", "result": "essentially the same rate"}, {"measurement": "t1/2 trig.", "setting": "[2]", "result": 7, "unit": "s"}, {"measurement": "t1/2", "setting": "[2]; [Dioxetane 2h] 10^-6 M", "result": 7.2, "unit": "s"}, {"measurement": "t1/2", "setting": "[2]; [Dioxetane 2h] 10^-7 M", "result": 6.2, "unit": "s"}, {"measurement": "t1/2", "setting": "[2]; [Dioxetane 2h] 10^-8 M", "result": 6.2, "unit": "s"}, {"measurement": "t1/2", "setting": "[2]; [Dioxetane 2h] 10^-9 M", "result": 6.7, "unit": "s"}, {"measurement": "Rate acceleration", "setting": "[2]", "result": "7.0 × 10^6"}, {"measurement": "Ea", "setting": "[3]", "result": 29.4, "unit": "kcal/mol"}, {"measurement": "t1/2", "setting": "[3]", "result": 1.7, "unit": "yr"}, {"measurement": "t1/2 25° C.", "setting": "[3]", "result": 1.7, "unit": "yr"}, {"measurement": "log A", "setting": "[3]", "result": 13.7}]}, {"smiles": "COC1(c2cccc(OP(=O)(O)O)c2)OOC1(C(C)C)C(C)C", "note": "(centres unmarked) [Dioxetane 2f]", "values": [{"measurement": "thermal and hydrolytic stability in aqueous solution", "setting": "[4]", "result": "stable under these conditions"}]}, {"smiles": "COC1(c2cccc(O)c2)OOC1(C1CCCCC1)C1CCCCC1", "note": "(centres unmarked) [Dioxetane 2i]", "values": [{"measurement": "rates of fluoride-triggered decomposition compared", "setting": "[2]", "result": "essentially the same rate"}, {"measurement": "t1/2 trig.", "setting": "[2]", "result": 6, "unit": "s"}, {"measurement": "Rate acceleration", "setting": "[2]", "result": "5.7 × 10^6"}, {"measurement": "Ea", "setting": "[3]", "result": 28.5, "unit": "kcal/mol"}, {"measurement": "t1/2", "setting": "[3]", "result": 1.1, "unit": "yr"}, {"measurement": "t1/2 25° C.", "setting": "[3]", "result": 1.1, "unit": "yr"}, {"measurement": "log A", "setting": "[3]", "result": 13.2}]}, {"smiles": "COC1(c2cccc(O[Si](C)(C)C(C)(C)C)c2)OOC12C1CC3CC(C1)CC2C3", "note": "(centres unmarked) [Dioxetane 2j]", "values": [{"measurement": "rates of fluoride-triggered decomposition compared", "setting": "[2]", "result": "essentially the same rate"}, {"measurement": "t1/2 trig.", "setting": "[2]", "result": 7, "unit": "s"}, {"measurement": "Rate acceleration", "setting": "[2]", "result": "1.4 × 10^7"}, {"measurement": "t1/2", "setting": "[3]", "result": 3.8, "unit": "yr"}]}]}
